Assay results from patent publication EP0783507B1, “COMPOUNDS USEFUL AS ANTIPROLIFERATIVE AGENTS AND GARFT INHIBITORS” (AGOURON PHARMACEUTICALS, INC., priority 1994, dated 1996).
Like-named read-outs stand apart in the source and are kept apart here.

Experiments:
L1210 = assay: In vitro cell growth inhibition (MTT, modified Mosmann method), L1210; type: cell-based; settings: Mus musculus, continuous (72-hour) exposure, mean IC50, read-out: IC50 Cell Culture L1210
Procedure: (§1) All cultures were maintained at 37°C, 5% air-CO2 in a humidified incubator.
(§2) Stock solutions of the inhibitors were prepared in 10 mM sodium bicarbonate in water and stored in 1 ml aliquots at - 20°C for cell culture experiments. Cell growth inhibition was measured by a modification of the method of Mosmann, J. Immunol. Methods 65 (1983), 55-63.
(§3) Mid-log phase cells of each cell line were diluted to 18,500 cells/ml in fresh RPMI growth medium (Mediatech, Washington, DC) supplemented with dialyzed fetal calf serum (Hyclone Laboratories Inc., Logan, UT) and then aliquotted into columns 2 through 12 of 96-well microtiter plates. Column 1 was filled with the same volume ([…]) of fresh medium, without cells, for use as a blank. The plates were then placed in a 37°C, 5% air-CO2 incubator. After 1 to 4 hours, plates were removed from the incubator followed by addition of Compound 1 at 10 x final concentration, […] in binary dilutions, to columns 12 to 4. […] The extent of metabolized MTT was measured spectrophotometrically at 540 nm on a Molecular Devices Vmax kinetic microplate reader. The concentration of drug required to reduce cell growth by 50% as measured by MTT metabolism was determined by interpolation between the O.D. (minus blank) immediately above and below 50% of control O.D. (minus blank).

CCRF-CEM = assay: In vitro cell growth inhibition (MTT, modified Mosmann method), CCRF-CEM; type: cell-based; settings: Homo sapiens, continuous (72-hour) exposure per table title, Table 2 gives 5 days incubation, mean IC50, read-out: IC50 Cell CultureCCRF-CEM
Procedure: as §1, §2, §3

6C3HED lymphosarcoma = type: in vivo; settings: tumor mass vs control on day 11
Procedure: (§4) On day zero, 2 mm^2 trocar fragments of 6C3HED lymphosarcoma were implanted subcutaneously in the axillary region into groups of six C3H/He female mice. Starting on day 1, the test compound was administered intraperitoneally in 40% Encapsin given once daily for nine days. Control animals received identical treatment without test compound. The percentage inhibition given in Table 4 below was calculated by comparing the mass of the control tumors (receiving diluent only) on day 11 to those of animals receiving test compound.

[1] = test system: C3H/BA mammary adenocarcinoma; type: in vivo; settings: tumor mass vs control on day 14
Procedure: as §4, with “C3H/BA mammary adenocarcinoma” for “6C3HED lymphosarcoma”, “percentage of” for “percentage”, “inhibition” for “inhibition given in Table 4 below”, “14” for “11”

[2] = biological target: catalytic domain of the human GARFT (Homo sapiens, UniProt P22102); assay: biochemical
catalytic domain of the human GARFT, sequence (P22102 810-1010 limits assumed): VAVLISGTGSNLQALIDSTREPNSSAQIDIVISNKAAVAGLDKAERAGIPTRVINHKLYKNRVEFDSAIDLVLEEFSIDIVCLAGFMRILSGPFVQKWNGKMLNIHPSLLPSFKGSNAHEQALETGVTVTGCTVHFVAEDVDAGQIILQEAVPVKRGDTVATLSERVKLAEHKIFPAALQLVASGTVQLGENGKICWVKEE
Procedure: The GAR-transformylase (GARFT) assay method of Young et al., Biochemistry 23 (1984), 3979-3986, was modified and used as described below. Reactions mixtures contained the catalytic domain of the human GARFT, 0-250 nM of Compound 1, 20 µM glycinamide ribonucleotide (GAR), 10 or 20 µM N^10-formyl-5,8-dideazafolate (FDDF), 50 mM HEPES-KOH, pH 7.5, and 50 mM KCl. The reaction was initiated with the addition of enzyme to a final concentration of 11 nM, followed by monitoring of the increase in absorbance at 294 nm at 20°C (e294 = 18.9 mM^-1 cm^-1).
The GARFT inhibition constant (Ki) was determined from the dependence of the steady-state catalytic rate on inhibitor and substrate concentration. […] The Michaelis constant for FDDF, Km, was determined independently by the dependence of the catalytic rate on FDDF concentration. Data for both the Km and Ki determinations were fitted by nonlinear methods to the Michaelis equation, or the Michaelis equation for competitive inhibition, as appropriate. Data resulting from tight-binding inhibition was analyzed, and Ki determined, by fitting the data to the tight-binding equation of Morrison, Biochem Biophys Acta 185 (1969), 269-286, by nonlinear methods.

With `Nc1nc2c(c(=O)[nH]1)SC(CCc1ccc(C(=O)N[C@@H](CCC(=O)O)C(=O)O)s1)CN2` (stereo partly drawn) [Compound 1, 4-[2-(2-Amino-4-oxo-4,6,7,8-tetrahydro-3H-pyrimido[5,4-6][1,4]thiazin-6-yl)-ethyl]-2,5-thienoylamino-L-glutamic acid] the IC50 (L1210) was 16 nM, the IC50 (CCRF-CEM) was 4.3 nM and the “% Inhibition” value (6C3HED lymphosarcoma; 12.5 mg/kg intraperitoneally in 40% Encapsin once daily for nine days) was 100%. The “% Inhibition” value (6C3HED lymphosarcoma; 25 mg/kg intraperitoneally in 40% Encapsin once daily for nine days) was 100%, the “% Inhibition” value (6C3HED lymphosarcoma; 50 mg/kg intraperitoneally in 40% Encapsin once daily for nine days) was “toxic” and the “% Inhibition” value ([1]; 5 mg/kg intraperitoneally in 40% Encapsin once daily for nine days) was 16%. The “% Inhibition” value ([1]; 10 mg/kg intraperitoneally in 40% Encapsin once daily for nine days) was 84%, the “% Inhibition” value ([1]; 20 mg/kg intraperitoneally in 40% Encapsin once daily for nine days) was 100% and the Ki [2] was 4.5 nM.
